In this data set the test system is HMC3 cell line. The data set is described as follows: Cell viability test (MTT assay). In kind it is cell-based, Homo sapiens, human. As to conditions: HMC3 cells, tested 0.039 to 100 µM. On the procedure: The American Type Culture Collection's HMC3 (CRL-3304) cell line was grown in the MEM growth medium supplemented with 10% fetal bovine serum (FBS), 100 U/mL penicillin, and 100 µg/mL streptomycin (complete medium). The cells were kept at 37 °C in a 5% CO2 incubator and grown up to 100% confluence before use. In particular, regarding BCP, cells were treated with this substance at concentrations ranging from 0.039 to 100 µM (9 concentrations). Regarding LAC, cells were treated with this substance at concentrations ranging from 0.06 to 30 mM (9 concentrations). […] The MTT cell viability test was performed by seeding 1 × 10^4 cells/well in a 96-multiwell and grown at 37 °C and 5% CO2. The next day, cells were treated with different concentrations of BCP and LAC and their combinations (Mix). […] The formazane crystals were then solubilized with 100 µL DMSO/well for 15 min and the absorbance was measured at the wavelength of 570 nm using a Multiskan™ GO microplate reader (Thermo Scientific Microplate Spectrophotometer). Finally, the cytotoxicity of the substances in combination was evaluated starting from the maximum non-cytotoxic concentrations of each molecule (BCP and LAC alone) (Table 1).

With `C=C1CC/C=C(\C)CC[C@@H]2[C@@H]1CC2(C)C` [BCP, (1R,4E,9S)-4,11,11-trimethyl-8-methylidenebicyclo[7.2.0]undec-4-ene], the maximum non-cytotoxic concentration was found to be 100 µM.
